Laboratory results reported in US20260191853A1, “METHOD OF TREATING DRUG-INDUCED BRADYARRHYTHMIA” (OSAKA UNIVERSITY, priority 2022, published 2026).
Entries after “also recorded” stand apart in the source; their conditions may differ.

Experiments:
[1] = tested on: Hartley guinea pigs; experiment: Preventive effect on fingolimod-induced bradyarrhythmia in isoflurane-anesthetized guinea pig model; assay type: in vivo
Method: A solvent or compound (I) (free form) was administered by oral gavage at a dose of 1, 3, or 10 mg/kg (volume: 5 mL/kg) to Hartley guinea pigs (7 to 10 weeks old, male, available from Japan SLC, Inc.). After completion of the administration, each animal was subjected to anesthetic induction by inhalation of isoflurane (available from Pfizer Japan Inc.), and the animal was held on an operating table having a heater function. The trachea was incised, and a tracheal cannula (KN-375, available from Natsume Seisakusho Co., Ltd.) was inserted. The tracheal cannula was connected to a ventilator (SN-480-7, available from Shinano Seisakusho Co., Ltd.), and artificial respiration was controlled by supplying 100% oxygen at a volume of 10 mL and a ventilation rate of 60 times/minute. The solvent used was 0.5 w/v % methyl cellulose 400 solution (available from FUJIFILM Wako Pure Chemical Corporation). Isoflurane (available from Pfizer Japan Inc.) anesthesia (about 1 to 4%, carrier gas: 100% oxygen) was used for maintenance of anesthesia. A catheter (BD intramedic polyethylene tubing PE50, available from Becton, Dickinson and Company) charged with 50 units/mL heparin (available from AY PHARMACEUTICALS CO., LTD.) was inserted into each of the carotid artery and the jugular vein and placed in the blood vessel. Systemic blood pressure was measured with a high-sensitivity DC amplifier (AD-611J, available from NIHON KOHDEN CORPORATION) via the catheter placed in the carotid artery. Electrodes were attached to the body surface, and a body surface electrocardiogram was measured with a high-sensitivity amplifier (AB-611J, available from NIHON KOHDEN CORPORATION). Blood pressure and electrocardiogram data were acquired and analyzed with PowerLab/Labchart system (available from ADInstruments). Analysis items are systolic blood pressure, diastolic blood pressure, average blood pressure, heart rate, P-wave width, PR interval, QRS width, QT interval, and corrected QT interval. Corrected QT interval was calculated using the fridericia formula (QTc=QT interval/RR interval^1/3). After stabilization of each parameter, fingolimod hydrochloride (synthesized with reference to WO 2000/027798) was continuously administered intravenously at 0.1 mg/kg for 10 minutes via the catheter placed in the jugular vein, followed by observation of the presence or absence of the onset of bradyarrhythmia for 60 minutes. The solvent used was saline (available from Otsuka Pharmaceutical Factory, Inc.). Data were recorded and blood was collected 5, 10, 15, 20, 30, and 60 minutes after initiation of administration of fingolimod hydrochloride. The observation was terminated 60 minutes after initiation of the administration, and the animal was euthanized by exsanguination or intravenous administration of a large amount of pentobarbital or saturated potassium chloride solution under isoflurane anesthesia. Data were analyzed for atrial beating rate over time, ventricular beating rate over time, electrocardiographic parameters, the presence or absence of the onset of atrioventricular block, and plasma concentrations of compound (I), fingolimod, and fingolimod phosphorylated form. The plasma was collected by centrifuging the blood and cryopreserved at about −20° C. After thawing of the plasma, plasma drug concentrations were measured using LC/MS/MS after deproteinization with acetonitrile.
Atrioventricular block was defined as follows.
Second-degree atrioventricular block: atrial activation wave (P wave) is normal, which is followed by or not followed by ventricular activation wave (QRS wave).
Third-degree atrioventricular block: there is no electrical conduction between the atrium and the ventricle, and atrial and ventricular activation waves are generated independently, resulting in atrioventricular dissociation.
In FIG. 1, the measurements are shown as mean±standard error. […]

[2] = target: T1, KACh channel (Homo sapiens, UniProt P48544+P48549); experiment: KACh channel inhibitory action
T1 sequence (P48549 1-501): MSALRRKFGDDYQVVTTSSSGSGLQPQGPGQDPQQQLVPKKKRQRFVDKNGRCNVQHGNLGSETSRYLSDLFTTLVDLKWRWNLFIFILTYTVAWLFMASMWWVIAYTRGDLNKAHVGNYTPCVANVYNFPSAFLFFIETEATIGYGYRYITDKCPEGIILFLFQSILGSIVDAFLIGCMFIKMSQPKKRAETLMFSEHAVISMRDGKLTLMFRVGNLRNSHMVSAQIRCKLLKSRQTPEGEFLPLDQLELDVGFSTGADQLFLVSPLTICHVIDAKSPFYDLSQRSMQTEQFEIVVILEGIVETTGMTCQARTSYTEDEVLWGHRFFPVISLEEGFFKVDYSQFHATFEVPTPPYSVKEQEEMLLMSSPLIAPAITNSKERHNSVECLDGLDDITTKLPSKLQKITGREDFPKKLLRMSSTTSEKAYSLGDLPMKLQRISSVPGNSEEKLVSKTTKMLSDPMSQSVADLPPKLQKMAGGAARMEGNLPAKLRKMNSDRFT
T1 sequence (P48544 1-419): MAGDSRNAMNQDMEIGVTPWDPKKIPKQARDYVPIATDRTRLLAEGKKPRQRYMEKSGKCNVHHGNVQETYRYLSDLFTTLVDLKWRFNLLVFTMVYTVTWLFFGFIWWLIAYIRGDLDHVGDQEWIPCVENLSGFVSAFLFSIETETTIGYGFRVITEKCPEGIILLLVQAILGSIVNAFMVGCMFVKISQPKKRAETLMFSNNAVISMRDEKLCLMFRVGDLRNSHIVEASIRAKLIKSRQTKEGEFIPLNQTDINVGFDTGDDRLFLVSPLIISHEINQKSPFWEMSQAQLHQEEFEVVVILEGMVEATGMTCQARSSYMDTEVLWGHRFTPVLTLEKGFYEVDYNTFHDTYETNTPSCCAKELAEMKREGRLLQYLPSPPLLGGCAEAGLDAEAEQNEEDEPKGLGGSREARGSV

[3] = tested on: genetically modified animal model; experiment: Sinus arrest and atrioventricular block in a genetically modified animal model; assay type: in vivo

Structure (SMILES): Cc1cc(CO)nc2cc3c(cc12)OC(C)(C)[C@H](O)[C@H]3NCCc1ccccc1 [Compound (I), (3R,4S)-7-Hydroxymethyl-2,2,9-trimethyl-4-(phenethylamino)-3,4-dihydro-2H-pyrano[2,3-g]quinoline-3-ol]
- cases in which fingolimod-induced atrioventricular block was not observed ([1]; 1 mg/kg oral gavage, four cases per group): 75%
- fingolimod-induced bradycardia (ventricular beating rate) ([1]; 3 mg/kg oral gavage, fingolimod hydrochloride 0.1 mg/kg i.v.): almost restored
- cases in which fingolimod-induced atrioventricular block was not observed ([1]; 3 mg/kg oral gavage, four cases per group): 75%
- fingolimod-induced bradycardia (ventricular beating rate / heart rate) ([1]; 10 mg/kg oral gavage, fingolimod hydrochloride 0.1 mg/kg i.v.): completely restored; also recorded: completely resolved
- cases in which fingolimod-induced atrioventricular block was suppressed ([1]; 10 mg/kg oral gavage, four cases per group): 100%
- onset of fingolimod-induced bradyarrhythmia (atrioventricular block) ([1]; 1, 3, 10 mg/kg oral gavage, FIG. 1 and FIG. 2): prevented the onset of fingolimod-induced bradyarrhythmia (atrioventricular block) in a dose-dependent manner
- fingolimod-induced bradycardia (ventricular beating rate / heart rate) ([1]; compound (I) 1, 3, 10 mg/kg oral gavage before fingolimod hydrochloride 0.1 mg/kg i.v. over 10 min, FIG. 1): improved in a dose-dependent manner; also recorded: prevented a reduction in heart rate
- fingolimod-induced prolongation of QT time ([1]; compound (I) oral gavage 1-10 mg/kg): almost completely suppressed
- KACh channel inhibitory action [2]: has a KACh channel inhibitory action
- efficacy for sinus arrest and atrioventricular block [3]: effective
